Assay results: ChEMBL document CHEMBL2434896, “Carbonic anhydrase inhibitors. Synthesis of heterocyclic 4-substituted pyridine-3-sulfonamide derivatives and their inhibition of the human cytosolic isozymes I and II and transmembrane tumor-associated isozymes IX and XII” (Eur J Med Chem, 2013)
The source made the active and inactive calls.

Tests used:
EKVX = experiment: Growth inhibition of human EKVX cells at 10 uM after 48 hrs by sulforhodamine B assay; assay type: functional
CAKI-1 = experiment: Growth inhibition of human CAKI-1 cells at 10 uM after 48 hrs by sulforhodamine B assay; assay type: functional
TK-10 = experiment: Growth inhibition of human TK10 cells at 10 uM after 48 hrs by sulforhodamine B assay; assay type: functional
DU-145 = experiment: Growth inhibition of human DU145 cells at 10 uM after 48 hrs by sulforhodamine B assay; assay type: functional
ACHN = experiment: Growth inhibition of human ACHN cells at 10 uM after 48 hrs by sulforhodamine B assay; assay type: functional
SW-620 = experiment: Growth inhibition of human SW620 cells at 10 uM after 48 hrs by sulforhodamine B assay; assay type: functional; conditions: SW-620, 48 h, read-out: GI
SNB-19 = experiment: Growth inhibition of human SNB19 cells at 10 uM after 48 hrs by sulforhodamine B assay; assay type: functional; conditions: SNB-19, 48 h, read-out: GI
RPMI-8226 = experiment: Growth inhibition of human RPMI8226 cells at 10 uM after 48 hrs by sulforhodamine B assay; assay type: functional
UACC-62 = experiment: Growth inhibition of human UACC62 cells at 10 uM after 48 hrs by sulforhodamine B assay; assay type: functional; conditions: UACC-62, 48 h, read-out: GI
SF-539 = experiment: Growth inhibition of human SF539 cells at 10 uM after 48 hrs by sulforhodamine B assay; assay type: functional
CCRF-CEM = experiment: Growth inhibition of human CCRF-CEM cells at 10 uM after 48 hrs by sulforhodamine B assay; assay type: functional; conditions: read-out: GI
OVCAR-3 = experiment: Growth inhibition of human OVCAR3 cells at 10 uM after 48 hrs by sulforhodamine B assay; assay type: functional
NCI-H522 = experiment: Growth inhibition of human NCI-H522 cells at 10 uM after 48 hrs by sulforhodamine B assay; assay type: functional; conditions: NCI-H522, 48 h, read-out: GI
HL-60(TB) = experiment: Growth inhibition of human HL-60(TB) cells at 10 uM after 48 hrs by sulforhodamine B assay; assay type: functional; conditions: HL-60, 48 h, read-out: GI
MCF7 = experiment: Growth inhibition of human MCF7 cells at 10 uM after 48 hrs by sulforhodamine B assay; assay type: functional; conditions: MCF7, 48 h, read-out: GI
OVCAR-5 = experiment: Growth inhibition of human OVCAR5 cells at 10 uM after 48 hrs by sulforhodamine B assay; assay type: functional
Carbonic anhydrase 9 = Carbonic anhydrase 9 (Homo sapiens, UniProt Q16790); experiment: Inhibition of human carbonic anhydrase 9 after 15 mins by stopped flow CO2 hydration assay
UACC-257 = experiment: Growth inhibition of human UACC257 cells at 10 uM after 48 hrs by sulforhodamine B assay; assay type: functional
M14 = experiment: Growth inhibition of human M14 cells at 10 uM after 48 hrs by sulforhodamine B assay; assay type: functional; conditions: M14, 48 h, read-out: GI
[1] = Growth inhibition of human Hs 578T cells at 10 uM after 48 hrs by sulforhodamine B assay; assay type: functional; conditions: read-out: GI
RXF 393 = experiment: Growth inhibition of human RXF393 cells at 10 uM after 48 hrs by sulforhodamine B assay; assay type: functional
HOP-62 = experiment: Growth inhibition of human HOP62 cells at 10 uM after 48 hrs by sulforhodamine B assay; assay type: functional
OVCAR-8 = experiment: Growth inhibition of human OVCAR8 cells at 10 uM after 48 hrs by sulforhodamine B assay; assay type: functional
SF-295 = experiment: Growth inhibition of human SF295 cells at 10 uM after 48 hrs by sulforhodamine B assay; assay type: functional
SK-MEL-2 = experiment: Growth inhibition of human SK-MEL-2 cells at 10 uM after 48 hrs by sulforhodamine B assay; assay type: functional
SF-268 = experiment: Growth inhibition of human SF268 cells at 10 uM after 48 hrs by sulforhodamine B assay; assay type: functional
HOP-92 = experiment: Growth inhibition of human HOP92 cells at 10 uM after 48 hrs by sulforhodamine B assay; assay type: functional; conditions: HOP-92, 48 h, read-out: GI
MDA-MB-231 = experiment: Growth inhibition of human MDA-MB-231 cells at 10 uM after 48 hrs by sulforhodamine B assay; assay type: functional
KM12 = experiment: Growth inhibition of human KM12 cells at 10 uM after 48 hrs by sulforhodamine B assay; assay type: functional
SNB-75 = experiment: Growth inhibition of human SNB75 cells at 10 uM after 48 hrs by sulforhodamine B assay; assay type: functional; conditions: SNB-75, 48 h, read-out: GI
SN12C = experiment: Growth inhibition of human SN12C cells at 10 uM after 48 hrs by sulforhodamine B assay; assay type: functional; conditions: read-out: GI
BT-549 = experiment: Growth inhibition of human BT549 cells at 10 uM after 48 hrs by sulforhodamine B assay; assay type: functional; conditions: BT-549, 48 h, read-out: GI
T47D = experiment: Growth inhibition of human T47D cells at 10 uM after 48 hrs by sulforhodamine B assay; assay type: functional
SK-MEL-28 = experiment: Growth inhibition of human SK-MEL-28 cells at 10 uM after 48 hrs by sulforhodamine B assay; assay type: functional, cell-based
HCT-15 = experiment: Growth inhibition of human HCT15 cells at 10 uM after 48 hrs by sulforhodamine B assay; assay type: functional
NCI-H226 = experiment: Growth inhibition of human NCI-H226 cells at 10 uM after 48 hrs by sulforhodamine B assay; assay type: functional
HCT-116 = experiment: Growth inhibition of human HCT116 cells at 10 uM after 48 hrs by sulforhodamine B assay; assay type: functional
SK-OV-3 = experiment: Growth inhibition of human SKOV3 cells at 10 uM after 48 hrs by sulforhodamine B assay; assay type: functional
A549 = experiment: Growth inhibition of human A549/ATCC cells at 10 uM after 48 hrs by sulforhodamine B assay; assay type: functional
MDA-MB-468 = experiment: Growth inhibition of human MDA-MB-468 cells at 10 uM after 48 hrs by sulforhodamine B assay; assay type: functional
MOLT-4 = experiment: Growth inhibition of human MOLT4 cells at 10 uM after 48 hrs by sulforhodamine B assay; assay type: functional; conditions: MOLT-4, 48 h, read-out: GI
HT-29 = experiment: Growth inhibition of human HT-29 cells at 10 uM after 48 hrs by sulforhodamine B assay; assay type: functional
COLO 205 = experiment: Growth inhibition of human COLO205 cells at 10 uM after 48 hrs by sulforhodamine B assay; assay type: functional
SR = experiment: Growth inhibition of human SR cells at 10 uM after 48 hrs by sulforhodamine B assay; assay type: functional; conditions: read-out: GI
SK-MEL-5 = experiment: Growth inhibition of human SK-MEL-5 cells at 10 uM after 48 hrs by sulforhodamine B assay; assay type: functional; conditions: SK-MEL-5, 48 h, read-out: GI
MDA-MB-435 = experiment: Growth inhibition of human MDA-MB-435 cells at 10 uM after 48 hrs by sulforhodamine B assay; assay type: functional
U-251 = experiment: Growth inhibition of human U251 cells at 10 uM after 48 hrs by sulforhodamine B assay; assay type: functional; conditions: U-251, 48 h, read-out: GI
786-0 = experiment: Growth inhibition of human 786-0 cells at 10 uM after 48 hrs by sulforhodamine B assay; assay type: functional
NCI-H460 = experiment: Growth inhibition of human NCI-H460 cells at 10 uM after 48 hrs by sulforhodamine B assay; assay type: functional

Cc1nn(-c2ccncc2S(N)(=O)=O)c(C)c1C
6%: inhibition of growth at 10 µM (CCRF-CEM) | inhibition of growth at 10 µM (SNB-75)
9%: inhibition of growth at 10 µM (HL-60(TB)) | inhibition of growth at 10 µM (SN12C)
23.1 nM: Ki (Carbonic anhydrase 9)
1%: inhibition of growth at 10 µM (SNB-19) | inhibition of growth at 10 µM (U-251)
4%: inhibition of growth at 10 µM (MCF7) | inhibition of growth at 10 µM (BT-549)
16%: inhibition of growth at 10 µM (SR)
20%: inhibition of growth at 10 µM [1]
5%: inhibition of growth at 10 µM (MOLT-4)
2%: inhibition of growth at 10 µM (M14)
25%: inhibition of growth at 10 µM (HOP-92)
inactive: growth inhibition (GI) (EKVX) | growth inhibition (GI) (CAKI-1) | growth inhibition (GI) (TK-10) | growth inhibition (GI) (DU-145) | growth inhibition (GI) (ACHN) | growth inhibition (GI) (RPMI-8226) | growth inhibition (GI) (SF-539) | growth inhibition (GI) (OVCAR-3) | growth inhibition (GI) (OVCAR-5) | growth inhibition (GI) (UACC-257) | growth inhibition (GI) (RXF 393) | growth inhibition (GI) (HOP-62) | growth inhibition (GI) (OVCAR-8) | growth inhibition (GI) (SF-295) | growth inhibition (GI) (SK-MEL-2) | growth inhibition (GI) (SF-268) | growth inhibition (GI) (MDA-MB-231) | growth inhibition (GI) (KM12) | growth inhibition (GI) (T47D) | growth inhibition (GI) (SK-MEL-28) | growth inhibition (GI) (HCT-15) | growth inhibition (GI) (NCI-H226) | growth inhibition (GI) (HCT-116) | growth inhibition (GI) (SK-OV-3) | growth inhibition (GI) (A549) | growth inhibition (GI) (MDA-MB-468) | growth inhibition (GI) (HT-29) | growth inhibition (GI) (COLO 205) | growth inhibition (GI) (MDA-MB-435) | growth inhibition (GI) (786-0) | growth inhibition (GI) (NCI-H460)
3%: inhibition of growth at 10 µM (UACC-62) | inhibition of growth at 10 µM (NCI-H522) | inhibition of growth at 10 µM (SK-MEL-5)
12%: inhibition of growth at 10 µM (SW-620)
